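Test compounds were applied to cells in 96-well plates for 48 hours at 5 doses. GI50 is the concentration that inhibits growth by half. At the TGI there is no net growth.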
Legend:
Experiment in all cases: inhibition of tumour cell growth, NCI panel, 48 h
[1] = system: EKVX NSCLC
[2] = system: OVCAR-3 ovarian
[3] = system: MCF7 breast
[4] = system: SW-620 colon
[5] = system: UO-31 renal
[6] = system: SK-MEL-5 melanoma
[7] = system: SNB-19 CNS
[8] = system: MDA-MB-435
[9] = system: A549 NSCLC
[10] = system: MALME-3M melanoma

SMILES	TGI [1] [µM]	TGI [2] [µM]	TGI [3] [µM]	TGI [4] [µM]	TGI [5] [µM]	TGI [6] [µM]	TGI [7] [µM]	TGI [8] [µM]	TGI [9] [µM]	TGI [10] [µM]	GI50 [1] [µM]	GI50 [2] [µM]	GI50 [4] [µM]	GI50 [5] [µM]	GI50 [6] [µM]	GI50 [8] [µM]
Cc1cc(C)n(C(=O)CSc2nnc(SCC(=O)n3nc(C)cc3C)s2)n1	> 100	> 100	> 100	> 100	> 100	> 100	> 100	> 100	> 100							
CCN(CC)CCNc1ccc2nnn3c4ccccc4c(=O)c1c23	19.4	23.7		15.4	29.3	10.3	40.3		13.2	16.1						
COc1ccc2nc3n(c2c1)C(c1c(Cl)cccc1Cl)SC3 (stereo not drawn)	> 100	> 100	> 100	> 100	> 100	> 100	> 100	> 100	> 100							
COc1cc(C23OCC(Cc4cc5c(cc42)OCO5)C3CO)cc(OC)c1OC (stereo not drawn)	> 100	5.8	> 100	> 100	> 100	> 100	> 100		> 100	> 100						
Cc1ccc(C2CC(c3cccc(Nc4ccncc4)c3)=NN2c2ccccc2)cc1 (stereo not drawn)	3.25	3.13		3.3	2.74	3.24		3.06			1.69	1.7	1.71	1.41	1.79	1.64
COC(=O)C1C(C(=O)OC)C1(Br)CBr (stereo not drawn)	90.3	> 100	> 100	> 100	34.9	> 100	> 100	> 100	> 100							
CCN(CC)COC(=S)S	> 100		> 100	78.1	> 100	> 100	> 100	> 100	> 100	> 100						
O=[N+]([O-])c1cccc2nc3ccccc3c(NCCCN3CCCCC3)c12	0.0401	0.026	0.11	5.89		0.0221	0.444	0.0227	0.115	0.038						
Cc1c2c(ccc3ccccc32)c[n+]2ccccc12		19.3		> 100	> 100	16	7.89		> 100	6.98						
N#Cc1c(-c2ccccc2)c(C#N)c(=O)n(C2OC(CO)C(O)C(O)C2O)c1S (stereo not drawn)		> 100	> 100	> 100	> 100	> 100	> 100	> 100	> 100	> 100						
CCOC(=O)N1[C@@H]2CCC[C@@H]2C(=O)[C@@H]2CCC[C@@H]21		> 100		> 100		> 100	> 100	> 100	> 100							
O=C(O)c1nccnc1C(=O)O	> 100			> 100	> 100	> 100	> 100		> 100	> 100						

From PubChem BioAssay (NCI)
